Measurements taken from PubChem BioAssay (NCI).
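Values below derive from 48-hour exposures of cells grown in 96-well plates, with endpoints linearly interpolated between the two concentrations bracketing the appropriate inhibition level. TGI marks complete inhibition of growth.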

Legend:
Experiment in all cases: NCI tumour cell line growth inhibition, 48 h
HCT-116 colon = test system: HCT-116 colon
HOP-92 NSCLC = test system: HOP-92 NSCLC
SNB-78 CNS = test system: SNB-78 CNS
SNB-75 CNS = test system: SNB-75 CNS
SK-MEL-2 melanoma = test system: SK-MEL-2 melanoma
KM12 colon = test system: KM12 colon
OVCAR-8 ovarian = test system: OVCAR-8 ovarian
UO-31 renal = test system: UO-31 renal
SF-268 CNS = test system: SF-268 CNS
HCT-15 colon = test system: HCT-15 colon
K-562 leukemia = test system: K-562 leukemia
UACC-257 melanoma = test system: UACC-257 melanoma
HOP-62 NSCLC = test system: HOP-62 NSCLC
OVCAR-4 ovarian = test system: OVCAR-4 ovarian
TK-10 renal = test system: TK-10 renal
IGROV1 ovarian = test system: IGROV1 ovarian
A498 renal = test system: A498 renal
MOLT-4 leukemia = test system: MOLT-4 leukemia
UACC-62 melanoma = test system: UACC-62 melanoma
HCC-2998 colon = test system: HCC-2998 colon
RXF-631 renal = test system: RXF-631 renal
NCI-H23 lung = test system: NCI-H23 lung
NCI-H460 lung = test system: NCI-H460 lung
A549 NSCLC = test system: A549 NSCLC
U251 CNS = test system: U251 CNS
OVCAR-3 ovarian = test system: OVCAR-3 ovarian
COLO 205 colon = test system: COLO 205 colon
CCRF-CEM leukemia = test system: CCRF-CEM leukemia
KM20L2 colon = test system: KM20L2 colon
OVCAR-5 ovarian = test system: OVCAR-5 ovarian
M19-MEL melanoma = test system: M19-MEL melanoma
XF 498 CNS = test system: XF 498 CNS
DMS 273 small cell lung = test system: DMS 273 small cell lung
M14 melanoma = test system: M14 melanoma
SF-295 CNS = test system: SF-295 CNS
HT29 colon = test system: HT29 colon
DMS 114 small cell lung = test system: DMS 114 small cell lung
786-0 renal = test system: 786-0 renal
SK-OV-3 ovarian = test system: SK-OV-3 ovarian
LOX IMVI melanoma = test system: LOX IMVI melanoma
CAKI-1 renal = test system: CAKI-1 renal
SF-539 CNS = test system: SF-539 CNS
EKVX NSCLC = test system: EKVX NSCLC
DLD-1 colon = test system: DLD-1 colon
HOP-18 NSCLC = test system: HOP-18 NSCLC
LXFL 529 NSCLC = test system: LXFL 529 NSCLC
SNB-19 CNS = test system: SNB-19 CNS
MALME-3M melanoma = test system: MALME-3M melanoma
HL-60(TB) leukemia = test system: HL-60(TB) leukemia
ACHN renal = test system: ACHN renal
SR leukemia = test system: SR leukemia
RXF 393 renal = test system: RXF 393 renal
RPMI-8226 leukemia = test system: RPMI-8226 leukemia
NCI-H226 lung = test system: NCI-H226 lung
SN12C renal = test system: SN12C renal
SK-MEL-5 melanoma = test system: SK-MEL-5 melanoma
SW-620 colon = test system: SW-620 colon
NCI-H522 lung = test system: NCI-H522 lung

Measured: TGI

COC1=C(C(=O)OC(C)(C)C)C23CCCCC2(C(C(=O)OC(C)(C)C)=C(OC)C3C(=O)OC(C)(C)C)C1C(=O)OC(C)(C)C (stereo not drawn)
44.4 µM: MOLT-4 leukemia
63.1 µM: HL-60(TB) leukemia
36 µM: SK-MEL-5 melanoma
32.8 µM: COLO 205 colon
89.5 µM: HOP-92 NSCLC
35.3 µM: RXF-631 renal
> 100 µM: all other assays above
